Consider 36 compounds from patent publication US12398151B2, “Sumo inhibitor compounds and uses thereof” (SUVALENT THERAPEUTICS, INC., priority 2019, dated 2025).

Usually inhibition stands for how much of the control response was suppressed.

Assay [1] concerns the target T1, SUMO E1 (Homo sapiens, UniProt Q9UBT2).
T1 sequence (Q9UBT2 1-640): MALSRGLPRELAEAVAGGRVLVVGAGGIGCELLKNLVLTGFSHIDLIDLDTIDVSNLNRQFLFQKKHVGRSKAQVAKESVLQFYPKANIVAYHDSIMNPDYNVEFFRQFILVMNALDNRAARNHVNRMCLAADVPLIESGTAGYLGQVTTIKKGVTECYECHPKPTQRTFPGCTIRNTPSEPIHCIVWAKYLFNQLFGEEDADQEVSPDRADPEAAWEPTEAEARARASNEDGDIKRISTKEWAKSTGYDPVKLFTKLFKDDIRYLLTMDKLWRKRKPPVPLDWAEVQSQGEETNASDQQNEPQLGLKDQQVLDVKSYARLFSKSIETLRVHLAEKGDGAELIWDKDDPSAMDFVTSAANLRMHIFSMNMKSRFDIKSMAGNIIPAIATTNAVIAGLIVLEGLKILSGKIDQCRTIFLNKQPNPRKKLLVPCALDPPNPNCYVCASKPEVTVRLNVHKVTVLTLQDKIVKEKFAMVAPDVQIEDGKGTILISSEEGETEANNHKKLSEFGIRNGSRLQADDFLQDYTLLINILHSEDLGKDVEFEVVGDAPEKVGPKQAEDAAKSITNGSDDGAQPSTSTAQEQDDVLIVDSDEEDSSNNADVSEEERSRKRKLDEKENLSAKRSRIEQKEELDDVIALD
T1 sequence (Q9UBE0 1-346 partner): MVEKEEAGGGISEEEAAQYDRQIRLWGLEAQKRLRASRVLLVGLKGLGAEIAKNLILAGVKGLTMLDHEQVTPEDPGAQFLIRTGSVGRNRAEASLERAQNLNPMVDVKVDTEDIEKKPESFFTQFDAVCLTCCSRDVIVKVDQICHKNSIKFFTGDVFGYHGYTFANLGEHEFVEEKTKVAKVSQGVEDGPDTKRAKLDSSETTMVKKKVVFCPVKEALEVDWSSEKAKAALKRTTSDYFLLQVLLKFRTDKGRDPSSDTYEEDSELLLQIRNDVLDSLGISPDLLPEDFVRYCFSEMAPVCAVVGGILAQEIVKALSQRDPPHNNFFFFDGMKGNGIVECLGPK
The experiment in a line: SUMO E1 inhibition: UBC9-SUMO1 conjugation by SDS gel electrophoresis. Type of assay: biochemical. The settings on record: read-out: SUMO E1 percent inhibition of adduct formation; for inhibition at 27 µM: 27 uM compound; for inhibition at 1 µM: 1 uM compound; for inhibition at 9 µM: 9 uM compound; for inhibition at 3 µM: 3 uM compound; for inhibition at 6 µM: 6 uM compound. In a few lines:
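SUMO E1 was preincubated with compound for a set time, then UBC9, SUMO1 and ATP were added and incubated at 37 °C. After Laemmli quench, UBC9-SUMO1 adduct was resolved by SDS gel; percent inhibition from band intensity versus no-compound control, reported with compound concentration (μM) and preincubation time (min).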

Assay [2] addresses T2, Atg7 (Homo sapiens, UniProt O95352).
T2 sequence (O95352 1-703): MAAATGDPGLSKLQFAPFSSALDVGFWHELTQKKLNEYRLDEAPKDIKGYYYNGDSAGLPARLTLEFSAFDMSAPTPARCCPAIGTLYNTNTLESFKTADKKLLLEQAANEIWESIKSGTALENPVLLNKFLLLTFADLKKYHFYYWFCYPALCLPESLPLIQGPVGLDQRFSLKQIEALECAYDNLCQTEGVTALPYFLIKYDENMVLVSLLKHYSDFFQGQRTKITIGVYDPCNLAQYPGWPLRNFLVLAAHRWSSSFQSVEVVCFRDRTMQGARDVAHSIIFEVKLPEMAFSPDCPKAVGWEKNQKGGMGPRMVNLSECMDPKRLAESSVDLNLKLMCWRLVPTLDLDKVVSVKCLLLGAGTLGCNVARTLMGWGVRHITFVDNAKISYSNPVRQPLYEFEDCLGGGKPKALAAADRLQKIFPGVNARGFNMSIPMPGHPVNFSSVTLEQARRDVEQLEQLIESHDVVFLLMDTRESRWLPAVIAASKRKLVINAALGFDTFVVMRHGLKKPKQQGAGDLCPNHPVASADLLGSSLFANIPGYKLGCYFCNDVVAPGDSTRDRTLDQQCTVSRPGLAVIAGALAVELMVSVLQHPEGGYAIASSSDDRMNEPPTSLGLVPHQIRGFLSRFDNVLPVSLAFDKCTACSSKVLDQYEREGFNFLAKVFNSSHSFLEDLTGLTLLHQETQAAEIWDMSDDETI
The experiment in a line: Atg7 activating enzyme (E1) inhibition. It is filed as biochemical. The conditions noted are these: 25 uM compound, 60 min preincubation; read-out: Atg7 percent inhibition of adduct formation. In a few lines:
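Compounds were assessed for their ability to inhibit the Atg7 activating enzyme (E1) following previously published methods and protocols. The E1 enzyme was preincubated with compound, and activity was expressed as the percent inhibition of adduct formation, reported together with the compound concentration in uM and the E1–compound preincubation time in minutes.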

Read-outs that look alike come from different tables or passages of the source.

As for `C=CC(=O)N1Cc2sc(CCC)cc2[C@@H](c2ccccc2C)C1` [Compound 110], the inhibition at 27 µM in assay [1] (30 min preincubation) amounted to 30%. Moreover, the inhibition at 25 µM in assay [2] worked out at 80%.
As for `C=CC(=O)N1Cc2cc(Br)sc2[C@@H](c2ccccc2C)C1` [Compound 111], the inhibition at 27 µM in assay [1] (30 min preincubation) came out at 80%. Besides, the inhibition at 25 µM in assay [2] is less than 1%.
Taken in the same sequence, the figures for `C=CC(=O)N1Cc2sc(Cl)cc2[C@@H](c2ccccc2C)[C@H]1C` [Compound 112] were 95% and less than 1%.
As to `C=CC(=O)N1Cc2sc(Cl)cc2[C@@H](c2ccccc2Br)C1` [Compound 113], the inhibition at 1 µM in assay [1] (30 min preincubation) turned out to be 95%. Also, the inhibition at 25 µM in assay [2] is less than 1%.
For `C=CC(=O)N1Cc2sc(Cl)cc2[C@@H](c2ccccc2F)C1` [Compound 114], the inhibition at 1 µM in assay [1] (30 min preincubation) was determined as 100%. Also, the inhibition at 25 µM in assay [2] was less than 1%.
For the compound `Cc1ccccc1[C@H]1CN(C(=O)CCl)Cc2sc(Cl)cc21` [Compound 115], the inhibition at 27 µM in assay [1] (30 min preincubation) turned out to be 80%. The inhibition at 25 µM in assay [2] worked out at 100%.
Take `C=CC(=O)N1Cc2ccsc2[C@@H](c2ccccc2)C1` [Compound 116]: in assay [1] (30 min preincubation), the inhibition at 27 µM is less than 1%. The inhibition at 25 µM in assay [2] was less than 1%.
For `C=CC(=O)N[C@H]1Cc2ccsc2[C@@H](c2ccccc2C)C1` [Compound 117], the inhibition at 27 µM in assay [1] (30 min preincubation) is less than 1%. Also, in assay [2], the inhibition at 25 µM is less than 1%.
With `Cc1ccccc1[C@H]1CN(C(=O)c2cccnc2Cl)Cc2sc(Cl)cc21` [Compound 118], the inhibition at 27 µM in assay [1] (30 min preincubation) is less than 1%. Besides, the inhibition at 25 µM in assay [2] was less than 1%.
Take `Cc1ccccc1[C@H]1CN(C(=O)/C=C/c2ccccn2)Cc2sc(Cl)cc21` [Compound 119]: the inhibition at 27 µM in assay [1] (30 min preincubation) is less than 1%. Moreover, the inhibition at 25 µM in assay [2] is less than 1%.
As for `O=C(/C=C/C(F)(F)F)N1Cc2sc(Cl)cc2[C@@H](c2ccccc2F)C1` [Compound 120], in assay [1] (30 min preincubation), the inhibition at 1 µM was 100%. Moreover, in assay [2], the inhibition at 25 µM is less than 1%.
With `Cc1ccccc1[C@H]1CN(C(=O)/C=C/c2ccc(C#N)cc2)Cc2sc(Cl)cc21` [Compound 121], the inhibition at 27 µM in assay [1] (30 min preincubation) was less than 1%. The inhibition at 25 µM in assay [2] was less than 1%.
Turning to `Cc1ccccc1[C@H]1CN(C(=O)/C=C/C(F)F)Cc2sc(Cl)cc21` [Compound 122], in assay [1] (30 min preincubation), the inhibition at 1 µM came to 100%. The inhibition at 25 µM in assay [2] was less than 1%.
For the compound `C=CC(=O)N1Cc2sccc2[C@@H](C2CCCCC2)C1` [Compound 123], in assay [1] (30 min preincubation), the inhibition at 9 µM is 40%. Besides, the inhibition at 25 µM in assay [2] is less than 1%.
Turning to `C=CC(=O)N1Cc2cc(Cl)sc2[C@@H](c2ccccc2C)C1` [Compound 127], the inhibition at 27 µM in assay [1] (20 min preincubation) worked out at 95%. Besides, in assay [2], the inhibition at 25 µM was less than 1%.
Turning to `C=CC(=O)N[C@H]1Cc2sccc2[C@@H](c2ccccc2Cl)C1` [Compound 130], the inhibition at 3 µM in assay [1] (30 min preincubation) was less than 1%. Also, the inhibition at 25 µM in assay [2] is less than 1%.
As for `C=CC(=O)N1Cc2sc(Cl)cc2[C@@H](c2ccccc2-c2ccccc2)C1` [Compound 133], the inhibition at 1 µM in assay [1] (30 min preincubation) was found to be 95%. Moreover, the inhibition at 25 µM in assay [2] is less than 1%.
On to `C=CC(=O)N1Cc2sc(Cl)cc2[C@@H]([C@@H](CC)C(=O)O)C1` [Compound 134], for which, in assay [1] (15 min preincubation), the inhibition at 27 µM was less than 1%. For the same compound, in assay [2], the inhibition at 25 µM is less than 1%.
As for `C=CC(=O)N1Cc2sc(Cl)cc2[C@@H](c2ccccc2C2CC2)C1` [Compound 135], in assay [1] (30 min preincubation), the inhibition at 27 µM worked out at 95%. Also, the inhibition at 25 µM in assay [2] is less than 1%.
With `C=CC(=O)N1Cc2sc(Cl)cc2[C@@H](c2ccccc2-c2ccncc2)C1` [Compound 136], in assay [1] (30 min preincubation), the inhibition at 3 µM was found to be 100%. Further, the inhibition at 25 µM in assay [2] was less than 1%.
In the case of `C=CC(=O)N1CC[C@H](c2ccccc2)c2cc(Cl)sc2C1` [Compound 137], the inhibition at 27 µM in assay [1] (30 min preincubation) was less than 1%. For the same compound, the inhibition at 25 µM in assay [2] was less than 1%.
Regarding `C=CC(=O)N1Cc2sc(Cl)cc2[C@@H](c2ccccc2CC2CCOCC2)C1` [Compound 138], the inhibition at 9 µM in assay [1] (15 min preincubation) was 50%. Further, the inhibition at 25 µM in assay [2] was less than 1%.
Take `C=CC(=O)N1CCc2ccccc2[C@@H](c2ccccc2)C1` [Compound 139]: the inhibition at 27 µM in assay [1] (30 min preincubation) is less than 1%. Also, in assay [2], the inhibition at 25 µM was less than 1%.
As to `C=CC(=O)N1CCc2ccccc2[C@@H](c2ccccc2)[C@H]1C` [Compound 140], the inhibition at 27 µM in assay [1] (30 min preincubation) is less than 1%. Further, in assay [2], the inhibition at 25 µM was less than 1%.
For the compound `O=C(/C=C/C(F)(F)F)N1Cc2sc(Cl)cc2[C@@H](c2ccccc2CC2CCOCC2)C1` [Compound 141], in assay [1] (30 min preincubation), the inhibition at 1 µM amounted to 50%. Moreover, the inhibition at 25 µM in assay [2] is less than 1%.
With `C=CC(=O)N1CCc2sc(Cl)cc2[C@@H](c2ccccc2)C1` [Compound 142], the inhibition at 9 µM in assay [1] (30 min preincubation) amounted to 80%. Also, the inhibition at 25 µM in assay [2] is less than 1%.
On to `Cc1ccccc1[C@H]1CN(C(=O)/C=C/C(F)(F)c2ccccn2)Cc2sc(Cl)cc21` [Compound 143], for which the inhibition at 27 µM in assay [1] (30 min preincubation) was less than 1%. In assay [2], the inhibition at 25 µM was less than 1%.
For the compound `C=CC(=O)N1Cc2sc(Cl)cc2[C@@H](C2=CN(C)CC=C2)C1` [Compound 145], the inhibition at 9 µM in assay [1] (30 min preincubation) was less than 1%. In addition, the inhibition at 25 µM in assay [2] was less than 1%.
As for `C=CC(=O)N1Cc2sccc2[C@@H]([C@H]2CCCN(C)C2)C1` [Compound 146], the inhibition at 9 µM in assay [1] (30 min preincubation) was less than 1%. Moreover, in assay [2], the inhibition at 25 µM was less than 1%.
With `C=CC(=O)N1Cc2sc(Cl)cc2[C@@H]([C@H]2CCCN(C)C2)C1` [Compound 147], the inhibition at 9 µM in assay [1] (30 min preincubation) was less than 1%. The inhibition at 25 µM in assay [2] is less than 1%.
`C=CC(=O)N1Cc2sc(Cl)cc2[C@@H](c2ccco2)C1` [Compound 148]: in assay [1] (30 min preincubation), the inhibition at 9 µM was less than 1%. Moreover, in assay [2], the inhibition at 25 µM was less than 1%.
In the case of `C=CC(=O)N1Cc2sc(Cl)c(F)c2[C@@H](c2ccccc2C)C1` [Compound 150], the inhibition at 22 µM in assay [1] (22 uM compound, 30 min preincubation) worked out at 50%. For the same compound, the inhibition at 25 µM in assay [2] is less than 1%.
Take `C=CC(=O)N1Cc2sc(Cl)cc2[C@@H](c2ccccc2OCCN(C)C)C1` [Compound 151]: in assay [1] (15 min preincubation), the inhibition at 6 µM is less than 1%. The inhibition at 25 µM in assay [2] is less than 1%.
As to `C=CC(=O)N1Cc2sc(Cl)cc2[C@@H](c2ccccc2OCCCN(C)C)C1` [Compound 152], in assay [1] (15 min preincubation), the inhibition at 6 µM was less than 1%. For the same compound, the inhibition at 25 µM in assay [2] was less than 1%.
`C=CC(=O)N1Cc2sc(Cl)cc2[C@@H](c2ccccc2OCCCN2CCCC2)C1` [Compound 153]: the inhibition at 6 µM in assay [1] (15 min preincubation) is less than 1%. For the same compound, in assay [2], the inhibition at 25 µM was less than 1%.
`C=CC(=O)N1Cc2sc(Cl)cc2[C@@H](c2csc3ccccc23)C1` [Compound 154]: the inhibition at 18 µM in assay [1] (18 uM compound, 15 min preincubation) was less than 1%. Besides, the inhibition at 25 µM in assay [2] was less than 1%.
